{"source": "patent US8901171B2", "about": "“Compounds for suppressing a peripheral nerve disorder induced by an anti-cancer agent” (Takeda Pharmaceutical Company Limited, priority 2010, dated 2014)", "assay_type_in_all_cases": "in vivo", "key": {"[1]": {"tested_on": "Mice (C57BL/6N, male, 8-week-old), peripheral nerve disorders induced by various anti-cancer agents", "experiment": "Experimental Example 4: pain threshold of mice given various anti-cancer agents, compound 9′, balance type pressing device (Ugo Basile)", "protocol": "Group D was intravenously administered with compound 9′ (1 mg/kg body weight) of Reference Example B dissolved in solution of N methyl-D(−)-glucamine (0.01 mol/L) immediately before intraperitoneal administration of various anti-cancer agents. Pain threshold of each group was measured 3 week after the administration for paclitaxel and 1 week after the administration for the anti-cancer agents other than paclitaxel. Pain threshold is a weighed value (gram) at the time when a false escape response is observed by pressurizing the plantar part of the right hindlimb using a balance type pressing device (Ugo Basile). The values in the Table show mean±standard error of the weighed values, and n is the number of the mice in each group."}, "[2]": {"tested_on": "Mice (C57BL/6N, male, 8-week-old), peripheral nerve disorders induced by various anti-cancer agents", "experiment": "Experimental Example 2: pain threshold of mice given various anti-cancer agents, balance type pressing device (Ugo Basile)", "conditions": "1 week after", "protocol": "Mice (C57BL/6N, male, 8-week-old) were divided into Group A, Group B, and Group C. As Group A, non-treated animals were used. […] Group C was intravenously administered with compound 72 (3 mg/kg body weight) of Reference Example A dissolved in an emulsion containing soybean oil, egg-yolk lecithin, glycerol and the like immediately before intraperitoneal administration of various anti-cancer agents. Thus, neither an enumerated anti- cancer agent nor Compound 72 was administered to Group A; an anti-cancer agent but not Compound 72 was administered to Groups B; and both an anti-cancer agent and Compound 72 were administered to Groups C. Pain threshold of each group was measured 1 week after the administration of the anti-cancer agent. Pain threshold is a weighed value (gram) at the time when a false escape response is observed by pressurizing the plantar part of the right hindlimb using a balance type pressing device (Ugo Basile). The values in the Table show mean ±standard error of the weighed values, and n is the number of the mice in each group."}, "[3]": {"tested_on": "Rat (Wistar, male, 5-week-old), peripheral nerve disorders induced by paclitaxel", "experiment": "Experimental Example 3: pain threshold of paclitaxel-treated rats, Electronic von Frey", "protocol": "Rat (Wistar, male, 5-week-old) were divided into Group A, Group B, and Group C. As Group A, non-treated animals were used. To Group B and Group C, paclitaxel is diluted with saline to a given concentration, and intraperitoneally administered at 6 mg/kg body weight for a total of 3 times at intervals of 1 to 2 days. Group C was intravenously administered with compound 72 (10 mg/kg body weight) of Reference Example A dissolved in an emulsion containing soybean oil, egg-yolk lecithin, glycerol and the like immediately before intraperitoneal administration of paclitaxel (total 3 times). Thus, neither paclitaxel nor Compound 72 was administered to Group A; paclitaxel but not Compound 72 was administered to Group B; and both paclitaxel and Compound 72 were administered to Group C. Pain threshold of each group was measured 2 weeks after first paclitaxel administration. Pain threshold is a weighed value (gram) at the time when an avoidance response is observed by pressurizing the plantar part of the right hindlimb using an Electronic von Frey (IITC Life Science). The values in the Table show mean ±standard error of the weighed values, and n is the number of the rats in each group."}, "[4]": {"tested_on": "Mice (C57BL/6N, male, 7-week-old), peripheral nerve disorders induced by paclitaxel", "experiment": "Experimental Example 1: pain threshold of paclitaxel-treated mice, balance type pressing device (Ugo Basile)", "conditions": "mean ± standard error", "protocol": "Mice (C57BL/6N, male, 7-week-old) were divided into Group A (6 mice), Group B (6 mice), and Group C (6 mice). Group B and Group C were intraperitoneally administered with paclitaxel (dissolved in ethanol:Cremophor EL:saline=0.5:0.5:9; 4 mg/kg body weight). As Group A, non-treated animals were used. Group C was intravenously administered with compound 72 (10 mg/kg body weight) of Reference Example A dissolved in an emulsion containing soybean oil, egg-yolk lecithin, glycerol and the like immediately before and 1 and 2 weeks after intraperitoneal administration of paclitaxel (total 3 times). Thus, neither paclitaxel nor Compound 72 was administered to Group A; paclitaxel but not Compound 72 was administered to Group B; and both paclitaxel and Compound 72 were administered to Group C. Pain threshold of each group was measured 3 weeks after paclitaxel administration to Group B and Group C. Pain threshold is a weighed value (gram) at the time when a false escape response is observed by pressurizing the plantar part of the right hindlimb using a balance type pressing device (Ugo Basile). The values in the Table show mean ±standard error of the weighed values."}}}
{"smiles": "N.N.O=C([O-])C1(C(=O)[O-])CCC1.[Pt+2]", "note": "[Carboplatin, carboplatin, reference compound]", "values": [{"measurement": "Pain threshold", "setting": "[1]; Group B: anti-cancer agent alone i.p. (docetaxel 3, vincristine 0.1, cisplatin 3, carboplatin 40, bortezomib 0.4 mg/kg), 1 week after", "result": "110.0 ± 6.8", "unit": "g"}, {"measurement": "Pain threshold", "setting": "[2]; Group B: anti-cancer agent alone i.p. (docetaxel 3, vincristine 0.1, cisplatin 3, carboplatin 40, bortezomib 0.4 mg/kg), non-treated Group A 365.0 ± 17.8", "result": "110.0 ± 6.8", "unit": "g"}]}
{"smiles": "CCOC(=O)C1=CCOC[C@H]1S(=O)(=O)Nc1ccc(F)cc1Cl", "note": "[compound 9′, ethyl (3S)-3-[N-(2-chloro-4-fluorophenyl)sulfamoyl]-3,6-dihydro-2H-pyran-4-carboxylate]", "values": [{"measurement": "Pain threshold", "setting": "[1]; Group D: bortezomib 0.4 mg/kg i.p. + compound 9′ 1 mg/kg i.v. immediately before, 1 week after", "result": "256.7 ± 26.5", "unit": "g"}, {"measurement": "Pain threshold", "setting": "[1]; Group D: carboplatin 40 mg/kg i.p. + compound 9′ 1 mg/kg i.v. immediately before, 1 week after", "result": "176.7 ± 16.7", "unit": "g"}, {"measurement": "Pain threshold", "setting": "[1]; Group D: cisplatin 3 mg/kg i.p. + compound 9′ 1 mg/kg i.v. immediately before, 1 week after", "result": "193.3 ± 26.2", "unit": "g"}, {"measurement": "Pain threshold", "setting": "[1]; Group D: docetaxel 3 mg/kg i.p. + compound 9′ 1 mg/kg i.v. immediately before, 1 week after", "result": "276.7 ± 38.1", "unit": "g"}, {"measurement": "Pain threshold", "setting": "[1]; Group D: paclitaxel 10 mg/kg i.p. + compound 9′ 1 mg/kg i.v. immediately before, 3 week after, mean ± standard error", "result": "406.7 ± 61.2", "unit": "g"}, {"measurement": "Pain threshold", "setting": "[1]; Group D: vincristine 0.1 mg/kg i.p. + compound 9′ 1 mg/kg i.v. immediately before, 1 week after", "result": "306.7 ± 73.5", "unit": "g"}]}
{"smiles": "CCOC(=O)C1=CCCC[C@H]1S(=O)(=O)Nc1ccc(F)cc1Cl", "note": "[compound 72, ethyl (6R)-6-[N-(2-chloro-4-fluorophenyl)sulfamoyl]-1-cyclohexene-1-carboxylate]", "values": [{"measurement": "Pain threshold", "setting": "[3]; Group C: paclitaxel 6 mg/kg i.p. 3 times + compound 72 10 mg/kg i.v. immediately before each, 2 weeks after first paclitaxel, mean ± standard error", "result": "24.9 ± 0.9", "unit": "g"}, {"measurement": "Pain threshold", "setting": "[4]; Group C: paclitaxel 4 mg/kg i.p. + compound 72 10 mg/kg i.v. immediately before and 1 and 2 weeks after (3 times), measured 3 weeks after paclitaxel", "result": "441.7 ± 28.6", "unit": "g"}, {"measurement": "Pain threshold", "setting": "[2]; Group C: bortezomib 0.4 mg/kg i.p. + compound 72 3 mg/kg i.v. immediately before, mean ± standard error", "result": "306.7 ± 24.0", "unit": "g"}, {"measurement": "Pain threshold", "setting": "[2]; Group C: carboplatin 40 mg/kg i.p. + compound 72 3 mg/kg i.v. immediately before, mean ± standard error", "result": "213.3 ± 13.3", "unit": "g"}, {"measurement": "Pain threshold", "setting": "[2]; Group C: cisplatin 3 mg/kg i.p. + compound 72 3 mg/kg i.v. immediately before, mean ± standard error", "result": "166.7 ± 18.5", "unit": "g"}, {"measurement": "Pain threshold", "setting": "[2]; Group C: docetaxel 3 mg/kg i.p. + compound 72 3 mg/kg i.v. immediately before, mean ± standard error", "result": "276.7 ± 17.4", "unit": "g"}, {"measurement": "Pain threshold", "setting": "[2]; Group C: vincristine 0.1 mg/kg i.p. + compound 72 3 mg/kg i.v. immediately before, mean ± standard error", "result": "289.2 ± 44.6", "unit": "g"}]}
{"smiles": "CC(=O)O[C@H]1C(=O)[C@@]2(C)[C@H]([C@H](OC(=O)c3ccccc3)[C@]3(O)C[C@H](OC(=O)[C@H](O)[C@@H](NC(=O)c4ccccc4)c4ccccc4)C(C)=C1C3(C)C)[C@]1(OC(C)=O)CO[C@@H]1C[C@@H]2O", "note": "[paclitaxel, reference compound]", "values": [{"measurement": "Pain threshold", "setting": "[3]; Group B: paclitaxel 6 mg/kg i.p. 3 times alone, 2 weeks after first administration, non-treated Group A 25.8 ± 0.7", "result": "15.4 ± 2.6", "unit": "g"}, {"measurement": "Pain threshold", "setting": "[4]; Group B: paclitaxel 4 mg/kg i.p. alone, measured 3 weeks after, non-treated Group A 443.3 ± 32.8", "result": "185.0 ± 19.3", "unit": "g"}]}
